“And” between values parts separate entries of the source, which are not always exact repeats. Identical values can stand only once. ± gives the uncertainty stated by the source.
Test: xn = mol fraction of the nth substance listed

COCCOC + CCCO
viscosity [mPa·s]
Settings	298.15 K	308.15 K
101 kPa, x1 = 0.0072	1.874 ± 0.2	1.467 ± 0.15
101 kPa, x1 = 0.01	1.864 ± 0.2	1.448 ± 0.15
101 kPa, x1 = 0.0347	1.697 ± 0.18	1.336 ± 0.14
101 kPa, x1 = 0.0524	1.598 ± 0.17	1.274 ± 0.13
101 kPa, x1 = 0.06899	1.588 ± 0.01	–
101 kPa, x1 = 0.0834	1.443 ± 0.15	1.16 ± 0.12
101 kPa, x1 = 0.1171	1.304 ± 0.14	1.055 ± 0.11
101 kPa, x1 = 0.1378	1.223 ± 0.13	1.008 ± 0.11
101 kPa, x1 = 0.1429	1.264 ± 0.0082	–
101 kPa, x1 = 0.1976	1.05 ± 0.11	0.902 ± 0.095
101 kPa, x1 = 0.2223	1.056 ± 0.007	–
101 kPa, x1 = 0.2436	0.946 ± 0.1	0.816 ± 0.086
101 kPa, x1 = 0.2925	0.879 ± 0.093	0.741 ± 0.079
101 kPa, x1 = 0.3078	0.8591 ± 0.0058	–
101 kPa, x1 = 0.3507	0.807 ± 0.086	0.682 ± 0.073
101 kPa, x1 = 0.4001	0.7303 ± 0.0051	–
101 kPa, x1 = 0.4082	0.747 ± 0.079	0.645 ± 0.069
101 kPa, x1 = 0.4355	0.695 ± 0.074	0.622 ± 0.066
101 kPa, x1 = 0.4665	0.684 ± 0.073	0.601 ± 0.064
101 kPa, x1 = 0.5001	0.6269 ± 0.0044	–
101 kPa, x1 = 0.5064	0.635 ± 0.068	0.579 ± 0.062
101 kPa, x1 = 0.5539	0.604 ± 0.064	0.557 ± 0.059
101 kPa, x1 = 0.605	0.573 ± 0.061	0.533 ± 0.057
101 kPa, x1 = 0.6088	0.5528 ± 0.004	–
101 kPa, x1 = 0.6728	0.54 ± 0.058	0.508 ± 0.054
101 kPa, x1 = 0.7247	0.519 ± 0.056	0.495 ± 0.053
101 kPa, x1 = 0.7273	0.4945 ± 0.0037	–
101 kPa, x1 = 0.7669	0.503 ± 0.054	0.483 ± 0.052
101 kPa, x1 = 0.8206	0.488 ± 0.052	0.475 ± 0.051
101 kPa, x1 = 0.8572	0.4482 ± 0.0034	–
101 kPa, x1 = 0.8747	0.473 ± 0.051	0.479 ± 0.051
101 kPa, x1 = 0.9605	0.461 ± 0.05	0.45 ± 0.048
101 kPa, x2 = 0.0061	0.452 ± 0.049	0.448 ± 0.048
101.33 kPa, x1 = 0.0095	1.881 ± 0.015	–
101.33 kPa, x1 = 0.0215	1.798 ± 0.014	–
101.33 kPa, x1 = 0.0405	1.678 ± 0.013	–
101.33 kPa, x1 = 0.0628	1.552 ± 0.012	–
101.33 kPa, x1 = 0.0941	1.397 ± 0.011	–
101.33 kPa, x1 = 0.1096	1.329 ± 0.011	–
101.33 kPa, x1 = 0.1355	1.228 ± 0.01	–
101.33 kPa, x1 = 0.1741	1.109 ± 0.009	–
101.33 kPa, x1 = 0.2034	1.024 ± 0.009	–
101.33 kPa, x1 = 0.2436	0.942 ± 0.008	–
101.33 kPa, x1 = 0.2926	0.842 ± 0.007	–
101.33 kPa, x1 = 0.3474	0.764 ± 0.007	–
101.33 kPa, x1 = 0.3848	0.722 ± 0.006	–
101.33 kPa, x1 = 0.4255	0.678 ± 0.006	–
101.33 kPa, x1 = 0.4764	0.636 ± 0.006	–
101.33 kPa, x1 = 0.5241	0.6 ± 0.006	–
101.33 kPa, x1 = 0.57	0.572 ± 0.005	–
101.33 kPa, x1 = 0.6239	0.536 ± 0.005	–
101.33 kPa, x1 = 0.6795	0.509 ± 0.005	–
101.33 kPa, x1 = 0.7142	0.495 ± 0.005	–
101.33 kPa, x1 = 0.7632	0.476 ± 0.005	–
101.33 kPa, x1 = 0.8198	0.459 ± 0.005	–
101.33 kPa, x1 = 0.8625	0.447 ± 0.004	–
101.33 kPa, x1 = 0.9004	0.439 ± 0.004	–
101.33 kPa, x1 = 0.9269	0.435 ± 0.004	–
101.33 kPa, x1 = 0.959	0.427 ± 0.004	–
101.33 kPa, x2 = 0.0158	0.424 ± 0.004	–

O=C(O)c1ccccc1 + CCCO
viscosity
Settings	298.15 K	303.15 K	308.15 K	313.15 K	318.15 K
101 kPa, x1 = 0.164	–	2.531 ± 0.021 mPa·s	–	–	1.77 ± 0.017 mPa·s
101 kPa, x1 = 0.1645	2.892 ± 0.074 mPa·s	2.531 ± 0.065 mPa·s	2.243 ± 0.057 mPa·s	1.988 ± 0.051 mPa·s	1.77 ± 0.045 mPa·s
101 kPa, x1 = 0.178	–	2.603 ± 0.022 mPa·s	–	–	1.816 ± 0.017 mPa·s
101 kPa, x1 = 0.197	–	2.724 ± 0.023 mPa·s	–	–	1.881 ± 0.018 mPa·s
101 kPa, x1 = 0.216	–	2.844 ± 0.024 mPa·s and 2.844 ± 0.072 mPa·s	2.498 ± 0.064 mPa·s	2.206 ± 0.056 mPa·s	1.965 ± 0.019 mPa·s and 1.965 ± 0.05 mPa·s
101.33 kPa, x1 = 0.1645	–	2.531 ± 0.067 mPa·s	–	–	1.77 ± 0.047 mPa·s
101.33 kPa, x1 = 0.178	–	2.603 ± 0.069 mPa·s	–	–	1.816 ± 0.049 mPa·s
101.33 kPa, x1 = 0.1975	–	2.734 ± 0.072 mPa·s	–	–	1.881 ± 0.05 mPa·s
101.33 kPa, x1 = 0.2	2.892 ± 0.02 mPa·s	2.531 ± 0.018 mPa·s and 2.531 ± 0.067 mPa·s	2.243 ± 0.016 mPa·s and 2.243 ± 0.06 mPa·s	1.988 ± 0.014 mPa·s and 1.988 ± 0.053 mPa·s	1.77 ± 0.012 mPa·s and 1.77 ± 0.047 mPa·s
101.33 kPa, x1 = 0.216	–	2.844 ± 0.075 mPa·s	–	–	1.965 ± 0.053 mPa·s
101.33 kPa, x1 = 0.22	–	2.844 ± 0.02 mPa·s and 2.844 ± 0.075 mPa·s	2.498 ± 0.017 mPa·s and 2.498 ± 0.066 mPa·s	2.206 ± 0.015 mPa·s and 2.206 ± 0.058 mPa·s	1.965 ± 0.014 mPa·s and 1.965 ± 0.052 mPa·s

— the CheMixHub viscosity set
